One assay concerns the target T1, MMP-1 (Homo sapiens, UniProt P03956).
T1 construct: made in house; host or cells: MMP-1-transfected HT-1080 cells (spent media)
T1 sequence (P03956 100-469): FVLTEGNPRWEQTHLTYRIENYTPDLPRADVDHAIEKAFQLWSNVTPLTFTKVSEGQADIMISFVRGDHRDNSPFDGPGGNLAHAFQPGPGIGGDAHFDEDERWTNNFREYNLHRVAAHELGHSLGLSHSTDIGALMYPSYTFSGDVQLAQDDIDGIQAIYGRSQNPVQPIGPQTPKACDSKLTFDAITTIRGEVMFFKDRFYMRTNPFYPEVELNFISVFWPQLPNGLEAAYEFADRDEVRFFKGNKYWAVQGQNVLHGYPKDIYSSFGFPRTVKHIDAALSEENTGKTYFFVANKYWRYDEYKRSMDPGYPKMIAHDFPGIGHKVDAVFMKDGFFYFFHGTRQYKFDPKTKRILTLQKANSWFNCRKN
Nature of the assay: In vitro MMP inhibition, Ki determination (fluorogenic substrate II). The class given is biochemical. The note with it: read-out: MMP-1 Ki.

The target in another assay is T2, MMP-9 (Homo sapiens, UniProt P14780).
T2 construct: made in house; host or cells: MMP-9-transfected HT1080 cells (spent media)
The description is as above. The class given is biochemical. Summed up:
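HT1080-derived MMP-9, activated with APMA, trypsin or MMP-3, incubated 1 hr at room temperature with inhibitor and 4 μM fluorogenic substrate II (at or below Km) in pH 7.5 Tris/NaCl/CaCl2 buffer; ex 330/em 420 nm. Ki from Morrison-equation regression, without substrate correction.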

Where two headings read alike, the source gives them in different places.

T2 sequence (P14780 107-707 limits assumed): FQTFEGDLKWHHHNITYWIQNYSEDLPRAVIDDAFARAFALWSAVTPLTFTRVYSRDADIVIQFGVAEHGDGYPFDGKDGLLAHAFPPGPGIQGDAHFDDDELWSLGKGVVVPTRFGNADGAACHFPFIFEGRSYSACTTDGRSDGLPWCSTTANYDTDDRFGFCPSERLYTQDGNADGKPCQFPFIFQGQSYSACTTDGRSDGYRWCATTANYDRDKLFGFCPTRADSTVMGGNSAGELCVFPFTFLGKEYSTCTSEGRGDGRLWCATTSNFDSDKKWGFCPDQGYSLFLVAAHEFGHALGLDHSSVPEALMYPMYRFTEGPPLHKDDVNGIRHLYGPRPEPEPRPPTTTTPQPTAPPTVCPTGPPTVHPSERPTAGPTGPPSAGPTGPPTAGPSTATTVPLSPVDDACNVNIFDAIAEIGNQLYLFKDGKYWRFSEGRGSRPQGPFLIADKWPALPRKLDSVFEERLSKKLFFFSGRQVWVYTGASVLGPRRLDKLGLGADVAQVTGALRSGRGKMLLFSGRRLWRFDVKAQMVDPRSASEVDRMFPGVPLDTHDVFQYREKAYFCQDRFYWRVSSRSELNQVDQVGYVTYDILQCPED

What is called Ki is the dissociation constant of the complex between target and ligand, obtained from inhibition or displacement. Regarding `CCCCc1ccc(N2CCN(S(=O)(=O)C3(C(=O)NO)CCOCC3)CC2)c(F)c1` [Example 91], the inhibition constant (Ki) amounted to 5110 nM at MMP-1 (value not in parenthesis) and 0.452 nM on MMP-9 (value not in parenthesis).

With `CCCCOc1ccc(N2CCN(S(=O)(=O)C3(C(=O)NO)CCN(Cc4cccnc4)CC3)CC2)cc1F` [Example 293], the Ki at MMP-1 (value outside parentheses) is more than 10000 nM; at MMP-9 (value outside parentheses), 2.21 nM.

For `CCCCOc1ccc(N2CCN(S(=O)(=O)C3(C(=O)NO)CCN(CCOC)CC3)CC2)c(F)c1` [Example 284], the Ki at MMP-1 (value outside parentheses) is more than 10000 nM; on MMP-9 (value outside parentheses), 0.99 nM.

As to `CCCCOc1ccc(N2CCN(S(=O)(=O)C3(C(=O)NO)CCN(c4ccc(Cl)nn4)CC3)CC2)cc1` [Example 281], the results for the Ki on MMP-1 (value outside parentheses) and on MMP-9 (value outside parentheses) were more than 10000 nM and 2.16 nM, respectively.

In the case of `COCCN1CCC(C(=O)NO)(S(=O)(=O)N2CCC(c3ccc(CCC(F)(F)F)cc3)CC2)CC1` [Example 309], the figures for the inhibitory constant (Ki) at MMP-1 (value outside parentheses) and on MMP-9 (value outside parentheses) were more than 10000 nM and 0.102 nM, respectively.

As for `CCCCOc1ccc(N2CCN(S(=O)(=O)C3(C(=O)NO)CCN(c4ccc(C)cc4)CC3)CC2)cc1F` [Example 296], the Ki was more than 10000 nM at MMP-1 (value outside parentheses) and 47.6 nM at MMP-9 (value outside parentheses).

Take `O=C(NO)C1(S(=O)(=O)N2CCN(c3ccc(OCc4ccccc4)cn3)CC2)CCOCC1` [Example 74]: the Ki at MMP-1 (value not in parenthesis) came to 3210 nM; at MMP-9 (value not in parenthesis), 4.8 nM.

Regarding `O=C(NO)C1(S(=O)(=O)N2CCN(c3ccc(COCC(F)(F)F)cc3)CC2)CCOCC1` [Example 72], the Ki on MMP-1 (value not in parenthesis) is more than 10000 nM; on MMP-9 (value not in parenthesis), 2.86 nM.

For the compound `CCCCc1ccc(N2CCN(S(=O)(=O)C3(C(=O)NO)CCN(c4ncccn4)CC3)CC2)nc1` [Example 99], the inhibitory constant (Ki) on MMP-1 (value not in parenthesis) was 8300 nM; on MMP-9 (value not in parenthesis) it was 0.16 nM.

Consider `CS(=O)(=O)c1ccc(N2CCN(S(=O)(=O)C3(C(=O)NO)CCOCC3)CC2)cc1` [Example 300], for which the figures for the inhibition constant Ki at MMP-1 (value outside parentheses) and at MMP-9 (value outside parentheses) were more than 10000 nM and 142 nM, respectively.

Take `CCc1ccc(N2CCN(S(=O)(=O)C3(C(=O)NO)CCCCC3)CC2)nc1` [Example 263]: the Ki was determined as 605 nM on MMP-1 (value outside parentheses) and 0.634 nM on MMP-9 (value outside parentheses).

With `CCCCc1ccc(C2CCN(S(=O)(=O)C3(C(=O)NO)CCN(CCOC)CC3)CC2)s1` [Example 55], the Ki is more than 10000 nM on MMP-1 (value not in parenthesis) and 0.35 nM on MMP-9 (value not in parenthesis).

As to `CCCCOc1ccc(N2CCN(S(=O)(=O)C3(C(=O)NO)CCN(c4ccc(C)cc4)CC3)CC2)cc1` [Example 295], the Ki on MMP-1 (value outside parentheses) was more than 10000 nM; on MMP-9 (value outside parentheses), 17.1 nM.

With `CCCCOc1ccc(N2CCN(S(=O)(=O)C3(C(=O)NO)CCN(c4ccccc4)CC3)CC2)cc1` [Example 264], the values for the inhibition constant Ki at MMP-1 (value outside parentheses) and on MMP-9 (value outside parentheses) were more than 10000 nM and 20.4 nM, respectively.

Regarding `COCCN1CCC(C(=O)NO)(S(=O)(=O)N2CCN(c3ccc(Oc4ccccc4)cc3)CC2)CC1` [Example 287], the Ki is more than 10000 nM at MMP-1 (value outside parentheses) and 13.9 nM at MMP-9 (value outside parentheses).

On to `CCCCOc1ccc(N2CCN(S(=O)(=O)C3(C(=O)NO)CCN(c4ccc(Cl)c(Cl)c4)CC3)CC2)cc1` [Example 250], for which the Ki on MMP-1 (value not in parenthesis) was more than 10000 nM; at MMP-9 (value not in parenthesis) it was 73.9 nM.

As to `CCCCCc1ccc(N2CCN(S(=O)(=O)C3(C(=O)NO)CCN(c4ncccn4)CC3)CC2)nc1` [Example 95], the results for the Ki at MMP-1 (value not in parenthesis) and at MMP-9 (value not in parenthesis) were more than 10000 nM and 0.99 nM, respectively.

For `CCCCOc1ccc(N2CCN(S(=O)(=O)C3(C(=O)NO)CCN(C(=O)CO)CC3)CC2)cc1` [Example 271], the inhibition constant Ki at MMP-1 (value outside parentheses) turned out to be 7470 nM; on MMP-9 (value outside parentheses) it was 1.49 nM.

As to `O=C(NO)C1(S(=O)(=O)N2CCN(c3ccc(CCC(F)(F)F)cc3)CC2)CCOCC1` [Example 77], the inhibition constant Ki at MMP-1 (value not in parenthesis) is more than 10000 nM; on MMP-9 (value not in parenthesis), 0.8 nM.

`O=C(NO)C1(S(=O)(=O)N2CCN(c3cccc(C(F)(F)F)c3)CC2)CCOCC1` [Example 82]: the Ki at MMP-1 (value not in parenthesis) was more than 10000 nM; at MMP-9 (value not in parenthesis) it was 249 nM.

`CC(C)COc1ccc(N2CCN(S(=O)(=O)C3(C(=O)NO)CCOCC3)CC2)cc1Cl` [Example 79]: the Ki is more than 10000 nM at MMP-1 (value not in parenthesis) and 41.5 nM at MMP-9 (value not in parenthesis).

In the case of `CCCCOc1ccc(N2CCN(S(=O)(=O)C3(C(=O)NO)CCN(C(C)=O)CC3)CC2)cc1` [Example 282], the Ki is more than 10000 nM on MMP-1 (value outside parentheses) and 0.098 nM on MMP-9 (value outside parentheses).

For `CCCCOc1ccc(N2CCN(S(=O)(=O)C3(C(=O)NO)CCNCC3)CC2)cc1F` [Example 286], the values for the Ki at MMP-1 (value outside parentheses) and at MMP-9 (value outside parentheses) were more than 10000 nM and 22.3 nM, respectively.

As for `CCCCOc1ccc(N2CCN(S(=O)(=O)C3(C(=O)NO)CCN(Cc4ccccc4)CC3)CC2)cc1F` [Example 285], the results for the Ki on MMP-1 (value outside parentheses) and on MMP-9 (value outside parentheses) were more than 10000 nM and 9.83 nM, respectively.

With `COCCN1CCC(C(=O)NO)(S(=O)(=O)N2CCC(c3ncc(CC(C)C)s3)CC2)CC1` [Example 311], the Ki on MMP-1 (value outside parentheses) is more than 10000 nM; at MMP-9 (value outside parentheses) it was 35.7 nM.

`CCCCOc1ccc(N2CCN(S(=O)(=O)C3(C(=O)NO)CCN(C(=O)OCC(C)(C)C)CC3)CC2)cc1` [Example 97]: the figures for the Ki at MMP-1 (value not in parenthesis) and on MMP-9 (value not in parenthesis) were more than 10000 nM and 21.9 nM, respectively.

With `O=C(NO)C1(S(=O)(=O)N2CCC(c3ccc(-c4ccc(F)cc4F)cn3)CC2)CCOCC1` [Example 308], the Ki at MMP-1 (value outside parentheses) amounted to 6780 nM; at MMP-9 (value outside parentheses) it was 11.3 nM.

In the case of `CCCCOc1ccc(N2CCN(S(=O)(=O)C3(C(=O)NO)CCN(C(C)(C)C)CC3)CC2)c(F)c1` [Example 84], the Ki was more than 10000 nM on MMP-1 (value not in parenthesis) and 17.9 nM on MMP-9 (value not in parenthesis).

Regarding `O=C(NO)C1(S(=O)(=O)N2CCN(c3ccc(COCC(F)(F)C(F)F)cc3)CC2)CCOCC1` [Example 71], the Ki at MMP-1 (value not in parenthesis) is more than 10000 nM; at MMP-9 (value not in parenthesis) it was 13 nM.

On to `CCCCOc1ccc(N2CCN(S(=O)(=O)C3(C(=O)NO)CCN(C(=O)CCCC)CC3)CC2)cc1` [Example 278], for which the results for the Ki on MMP-1 (value outside parentheses) and on MMP-9 (value outside parentheses) were more than 10000 nM and 2 nM, respectively.

For the origin of these results see patent publication US20050209278A1, “Piperidinyl- and piperazinyl-sulfonylmethyl hydroxamic acids and their use as protease inhibitors” (priority 2002, published 2005).
